pIC50: −log10 of the molar value. Active and inactive are the calls of the source. No cut-off for these calls is given here.
Key:
Type in all cases: functional, cell-based
[1] = test system: KB; experiment: Cytotoxicity against human KB cells at < 10 uM
[2] = test system: LoVo; experiment: Cytotoxicity against human LoVo cells at < 10 uM
[3] = test system: LoVo; experiment: Cytotoxicity against human LoVo cells
[4] = test system: KB; experiment: Cytotoxicity against human KB cells

Row | SMILES | Activity [1] | Activity [2] | pIC50 [3] | pIC50 [4]
1 | CCC[C@H]1NC(=O)c2csc(n2)[C@H](C)NC(=O)[C@H](C(C)C)N(C)C(=O)[C@H](C(C)C)NC(=O)[C@H]([C@@H](C)CC)OC(=O)[C@H]1C | inactive | inactive |  | 
2 | CCC[C@H]1NC(=O)c2csc(n2)[C@H](C)NC(=O)[C@H](C(C)C)N(C)C(=O)[C@H](Cc2ccccc2)N(C)C(=O)[C@H](C)OC(=O)[C@@H]1C [ULONGAMIDE A] |  |  | 5.30 | 6.00
3 | CCC[C@H]1NC(=O)c2csc(n2)[C@H](C)NC(=O)[C@H](C(C)C)N(C)C(=O)[C@H](Cc2ccc(O)cc2)N(C)C(=O)[C@H](C)OC(=O)[C@@H]1C [ULONGAMIDE B] |  |  | 5.30 | 6.00
4 | CCC[C@H]1NC(=O)c2csc(n2)[C@H](C)NC(=O)[C@H](Cc2ccccc2)N(C)C(=O)[C@H](Cc2ccc(O)cc2)N(C)C(=O)[C@H](C)OC(=O)[C@@H]1C [ULONGAMIDE C] |  |  | 5.30 | 6.00
5 | CCC[C@H]1NC(=O)c2csc(n2)[C@H](C)NC(=O)[C@H](C(C)C)N(C)C(=O)[C@H](Cc2ccc(O)cc2)N(C)C(=O)[C@H](C(C)C)OC(=O)[C@H]1C [ULONGAMIDE D] |  |  | 5.30 | 6.00
6 | CCC[C@H]1NC(=O)c2csc(n2)[C@H](C)NC(=O)[C@H](C(C)C)N(C)C(=O)[C@H](Cc2ccc(O)cc2)N(C)C(=O)[C@H]([C@H](C)CC)OC(=O)[C@H]1C [ULONGAMIDE E] |  |  | 5.30 | 6.00

Reference: ChEMBL document CHEMBL1150113, “Ulongamides A-F, new beta-amino acid-containing cyclodepsipeptides from Palauan collections of the marine cyanobacterium Lyngbya sp” (J Nat Prod, 2002)
